Test results: paper PMC11323312, “Structural response of G protein binding to the cyclodepsipeptide inhibitor FR900359 probed by NMR spectroscopy” (Chemical Science, 2024)
Starred links: 1 amine or outer side, 2 acyl side, 3 side chain; linkers in the order of their positions; H or OH if unused. Positions of bridges follow the written chain, without caps; N, C: chain ends. Non-standard residues stand in square brackets, D forms with d. Residues, ends and D or L forms follow the SMILES beside them. *: point of attachment. Leu(3R-OH,Nα-propionyl) = CCC(=O)N[C@H](C(=O)*)[C@H](O)C(C)C; X1 = CC(C)[C@@H](O[*:3])[C@H](N[*:1])C(=O)[*:2]; NMeT = CN[C@H](C(=O)O)[C@@H](C)O; dPhLac = O=C(O)[C@H](O)Cc1ccccc1; NMeA = CN[C@@H](C)C(=O)O; NMeDha = C=C(NC)C(=O)O

What was measured:
[1] = target: T1, chimeric Gαi/q protein (FR-sensitive Gαi mutant) (Homo sapiens, UniProt P63096, H188P/K180P/K54R/T187Y/V185I/V50I/V72L/Y69F); test: Radioligand binding ([3H]PSB-15900 homologous competition, filtration assay); details: chimeric Gαi/q on TALON beads, 5 μg protein; [3H]PSB-15900 5 nM; unlabeled FR 0.003-30 μM; 2 h, 4 °C; 50 mM Tris-HCl pH 7.4; one-site homologous equation; mean ± SD of 3 independent experiments in duplicates
T1 construct: made in house; host or cells: E. coli (pET16b)
Protocol: The purified chimeric Gαi/q protein was preincubated with TALON immobilized metal affinity chromatography (IMAC) resin beads (Takara Bio) for 1–2 h at 4 °C with gentle shaking (0.025 μL beads per 0.1 mL of protein solution in 50 mM Tris–HCl, pH 7.4; final protein amount per sample: 5 μg). Each sample contained 70 μL of assay buffer (50 mM Tris–HCl, pH 7.4), 5 μL of dimethyl sulfoxide (DMSO) or the test compound (dissolved in DMSO), 50 μL of [^3H]PSB-15900 (FR-derived radioligand; 28 Ci/mmol; Pharmaron, Cardiff, UK)[14] in assay buffer (final concentration: 5 nM) and 125 μL of protein solution. Total binding of [^3H]PSB-15900 was determined using 5 μL of DMSO, and non-specific binding was determined using 5 μL of unlabeled FR900359 (final concentration: 5 μM). For competition binding experiments, dilutions from 30 μM to 0.003 μM of unlabeled FR900359, dissolved in DMSO, were added. Incubation was performed for 2 h at 4 °C with gentle shaking. […]
Multiple regions of the protein are either directly involved in binding of cyclodepsipeptide inhibitors, as shown by structural data on bound YM,[23] or show an indirect response to binding of the inhibitor, as proposed by MD simulations.[13,25] To investigate the conformational response of the G protein to inhibitor binding, structural alterations of the G protein itself must be detected. […]

Gαi/q = test: Structural response to inhibitor binding by DNP-enhanced ssNMR (13C-NCOCX, unique pair labeling); details: inhibitor : protein 1.5 : 1, 4 °C overnight, nominal 105 K
Protocol: The protein response to inhibitor binding was studied by HNCO(CX) experiments with 20 ms mixing time recorded on DNP samples of frozen Gαi/q protein solution. The polarizing agent AsymPolPOK[36] was dried from a chloroform : methanol (1 : 1) stock solution to form a film that was resuspended with 1 mg of protein solution that was concentrated to a volume of 15 μL, subsequently 15 μL of d8-glycerol was added. The final concentration of radical in the mixture with the protein sample in the 3.2 mm NMR rotor was 10 mM. The samples were measured at a DNP setup consisting of a 400 MHz Avance Neo spectrometer (Bruker) with a 3.2 mm Cryo MAS HCN probe (Bruker) and a 263 GHz Gyrotron as microwave source. All experiments were done at a nominal temperature of 105 K. A MAS rate of 8 kHz and proton decoupling of 100 kHz were chosen. To investigate the effects of inhibitor binding, the protein solution was incubated with unlabeled FR or YM from a 10 mM DMSO stock solution at an inhibitor to protein molar ratio of 1.5 : 1 at 4 °C overnight. To study the effects of nucleotide binding, 5 μL of GDP was added to the samples from a 17 mM solution of GDP : MgCl2 (3 : 1 molar ratio) directly into the rotor. The GTP-bound state was generated by subsequent addition of 2 μL of GTP [0.1 M] and 2 μL AlF4 salt solution (150 mM MgCl2, 75 mM NaF, 15 mM AlCl3). DNP enhancement was measured by comparison of ^13C-CP spectra with and without microwave irradiation. Referencing was done indirectly using the right peak of d8-glycerol at 64.78 ppm.
In order to collect information about conformational changes in a spatially resolved manner, a unique pair labeling approach was chosen,[50] resulting in signals in the NMR spectra from a unique pair of neighboring amino acids in NCO type experiments. […] To obtain sufficient signal intensity in the experiments, spectra were recorded using DNP-enhanced ssNMR. […] Under those conditions, the full sampled conformational space is conserved and reflected in NMR line shapes, which can then be analyzed. […]

T1 sequence (P63096 whole entry V50I/K54R/Y69F/V72L/K180P/V185I/T187Y/H188P): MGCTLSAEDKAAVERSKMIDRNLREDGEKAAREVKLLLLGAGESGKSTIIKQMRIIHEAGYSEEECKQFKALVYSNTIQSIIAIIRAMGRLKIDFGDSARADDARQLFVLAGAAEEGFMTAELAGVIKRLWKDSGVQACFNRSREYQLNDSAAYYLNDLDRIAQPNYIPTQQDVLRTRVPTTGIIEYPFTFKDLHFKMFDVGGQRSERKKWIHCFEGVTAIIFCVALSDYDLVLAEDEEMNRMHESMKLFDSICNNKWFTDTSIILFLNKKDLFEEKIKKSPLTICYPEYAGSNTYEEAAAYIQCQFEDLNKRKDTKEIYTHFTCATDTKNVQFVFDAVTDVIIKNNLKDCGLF

| Compound | Kd [1] | response of switch III (R242-M243) to inhibitor binding (Gαi/q; RM-pair) | response of α5 helix (V335-F336) to inhibitor binding (Gαi/q; VF-pair) | response of switch I (V179-P180) to inhibitor binding (Gαi/q; VP-pair) |
| --- | --- | --- | --- | --- |
| C=C1C(=O)N[C@@H](C)C(=O)N(C)[C@@H](C)C(=O)N[C@@H]([C@H](OC(=O)[C@@H](NC(=O)CC)[C@H](O)C(C)C)C(C)C)C(=O)N(C)[C@@H]([C@@H](C)OC)C(=O)O[C@H](C(C)C)[C@H](NC(C)=O)C(=O)O[C@H](Cc2ccccc2)C(=O)N1C [FR, FR900359] (Ac-[X1][dPhLac][NMeDha]A[NMeA][X1](Leu(3R-OH,Nα-propionyl))[NMeT](Me); ester 1-C) | 271 ± 69 nM | – | – | – |
| YM-254890 | – | no effects in switch III | minor effects | clear narrowing of the ^13C valine signals |
